Experimental data taken from US8063071B2 (GlaxoSmithKline, LLC, priority 2007, dated 2011).
Structures can show the parent of a compound that is named as a salt.

Tests used:
[1] = tested on: human monocyte stimulated cytokine production (TNF-α); assay: Monocyte assay (LPS-stimulated TNF-α production); format: cell-based; conditions: for IC50: 24 h, 200 ng/mL LPS, TNF-α by ELISA; for inhibition at 0.3 µM: read-out: inhibition at 300 nM in the monocyte assay
Outline: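 TNF-α release was measured by ELISA after 24 hrs at 37 C. Cells were stimulated with 200 ng/mL E. coli LPS, with compound added 30 minutes beforehand (0.1% DMSO vehicle). Cells were Ficoll/MACS-isolated CD14+ human monocytes adhered at 1×10^6 cells/mL, and viability was checked by trypan blue.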

[2] = target: T1, Recombinant human IKKβ (residues 1-737) (Homo sapiens, UniProt O14920); assay: IKK2 assay (TR-FRET); format: biochemical; conditions: ATP 1 μM final, read-out: pIC50 against IKK2 (converted)
T1 construct: Recombinant human IKKβ (residues 1-737); GST (C); made in house
T1 sequence (O14920 1-737): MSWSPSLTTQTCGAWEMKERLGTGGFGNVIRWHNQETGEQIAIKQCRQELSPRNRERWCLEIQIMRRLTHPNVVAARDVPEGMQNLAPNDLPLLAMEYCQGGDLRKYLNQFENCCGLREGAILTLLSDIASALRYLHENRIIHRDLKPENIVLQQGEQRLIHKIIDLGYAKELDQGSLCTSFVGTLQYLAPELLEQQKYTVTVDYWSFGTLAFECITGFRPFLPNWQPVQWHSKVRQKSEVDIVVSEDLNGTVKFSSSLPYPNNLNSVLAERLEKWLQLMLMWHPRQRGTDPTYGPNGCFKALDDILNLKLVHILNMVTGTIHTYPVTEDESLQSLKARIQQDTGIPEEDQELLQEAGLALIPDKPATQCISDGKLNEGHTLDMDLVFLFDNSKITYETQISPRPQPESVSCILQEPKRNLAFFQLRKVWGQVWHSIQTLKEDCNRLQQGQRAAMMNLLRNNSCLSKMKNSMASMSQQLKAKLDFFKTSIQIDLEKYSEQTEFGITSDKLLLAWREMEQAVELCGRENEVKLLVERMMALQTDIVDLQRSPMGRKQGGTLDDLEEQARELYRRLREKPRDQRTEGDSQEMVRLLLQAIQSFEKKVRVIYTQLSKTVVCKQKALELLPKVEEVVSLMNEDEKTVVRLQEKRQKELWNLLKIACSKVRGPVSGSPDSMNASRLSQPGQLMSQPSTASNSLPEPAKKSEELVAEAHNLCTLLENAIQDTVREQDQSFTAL
Outline: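 TR-FRET readout (665 nm over 620 nm Eu reference) of GST-IB Ser32/36 phosphorylation after 60 min detection. Reaction: 1 μM ATP, 25 nM substrate, 0.5-5 nM GST-fused IKKβ 1-737 from baculovirus, pH 7.4 HEPES buffer, 1.7% DMSO, 15 min room temperature, EDTA-terminated.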

| SMILES | IC50 [1] | IC50 [2] | inhibition at 0.3 µM [1] |
| --- | --- | --- | --- |
| CCS(=O)(=O)N1CCC(c2c[nH]c3c(C(N)=O)cc(-c4csc(CN(C)CCCN(C)C)c4)cc23)CC1 [Example 70, 5-(5-{[[3-(dimethylamino)propyl](methyl)amino]methyl}-3-thienyl)-3-[1-(ethylsulfonyl)-4-piperidinyl]-1H-indole-7-carboxamide trifluoroacetate] | > 1000 nM | ≤ 10 µM |  |
| CCS(=O)(=O)N1CCC(c2c[nH]c3c(C(N)=O)cc(-c4ccc(CNCCCOC(C)C)s4)cc23)CC1 [Example 196, 3-[1-(ethylsulfonyl)-4-piperidinyl]-5-{5-[({3-[(1-methylethyl)oxy]propyl}amino)methyl]-2-thienyl}-1H-indole-7-carboxamide] | > 1000 nM | ≤ 10 µM |  |
| CCS(=O)(=O)N1CCC(c2c[nH]c3c(C(N)=O)cc(-c4ccc(N5CCN(C(C)=O)CC5)nc4)cc23)CC1 [Example 389, 5-[6-(4-acetyl-1-piperazinyl)-3-pyridinyl]-3-[1-(ethylsulfonyl)-4-piperidinyl]-1H-indole-7-carboxamide trifluoroacetate] | > 1000 nM | ≤ 10 µM |  |
| CCS(=O)(=O)N1CCC(c2c[nH]c3c(C(N)=O)cc(-c4cccc(C(C)NC)c4)cc23)CC1 (stereo not shown) [Example 292, 3-[1-(ethylsulfonyl)-4-piperidinyl]-5-{3-[1-(methylamino)ethyl]phenyl}-1H-indole-7-carboxamide trifluoroacetate] | ≤ 1500 nM | ≤ 10 µM |  |
| CCS(=O)(=O)N1CCC(c2c[nH]c3c(C(N)=O)cc(-c4ccccc4CNC)cc23)CC1 [Example 303, 3-[1-(ethylsulfonyl)-4-piperidinyl]-5-{2-[(methylamino)methyl]phenyl}-1H-indole-7-carboxamide trifluoroacetate] | > 1000 nM | ≤ 10 µM |  |
| CCS(=O)(=O)N1CCC(c2c[nH]c3c(C(N)=O)cc(-c4cccc(CNC(=O)C5CC5)c4)cc23)CC1 [Example 368, 5-(3-{[(cyclopropylcarbonyl)amino]methyl}phenyl)-3-[1-(ethylsulfonyl)-4-piperidinyl]-1H-indole-7-carboxamide] | ≤ 1500 nM | ≤ 10 µM |  |
| CCS(=O)(=O)N1CCC(c2c[nH]c3c(C(N)=O)cc(-c4cccc(CN5CCOCC5)c4)cc23)CC1 [Example 3, 3-[1-(ethylsulfonyl)-4-piperidinyl]-5-[3-(4-morpholinylmethyl)phenyl]-1H-indole-7-carboxamide] | ≤ 1500 nM | ≤ 10 µM |  |
| CCS(=O)(=O)N1CCC(c2c[nH]c3c(C(N)=O)cc(-c4cccc(CNCc5cccs5)c4)cc23)CC1 [Example 304, 3-[1-(ethylsulfonyl)-4-piperidinyl]-5-(3-{[(2-thienylmethyl)amino]methyl}phenyl)-1H-indole-7-carboxamide trifluoroacetate] | ≤ 1500 nM | ≤ 10 µM |  |
| CCS(=O)(=O)N1CCC(c2c[nH]c3c(C(N)=O)cc(-c4ccc(CN5CCCC5)s4)cc23)CC1 [Example 239, 3-[1-(ethylsulfonyl)-4-piperidinyl]-5-[5-(1-pyrrolidinylmethyl)-2-thienyl]-1H-indole-7-carboxamide trifluoroacetate] | ≤ 1500 nM | ≤ 10 µM |  |
| CCS(=O)(=O)N1CCC(c2c[nH]c3c(C(N)=O)cc(-c4ncc(CN5CCCC5)s4)cc23)CC1 [Example 249, 3-[1-(ethylsulfonyl)-4-piperidinyl]-5-[5-(1-pyrrolidinylmethyl)-1,3-thiazol-2-yl]-1H-indole-7-carboxamide trifluoroacetate] | > 1000 nM | ≤ 10 µM |  |
| CCCNCCc1ccc(-c2cc(C(N)=O)c3[nH]cc(C4CCN(S(=O)(=O)CC)CC4)c3c2)cc1 [Example 126, 3-[1-(ethylsulfonyl)-4-piperidinyl]-5-{4-[2-(propylamino)ethyl]phenyl}-1H-indole-7-carboxamide] | ≤ 1500 nM | ≤ 10 µM |  |
| CCS(=O)(=O)N1CCC(c2c[nH]c3c(C(N)=O)cc(-c4cccc(CN5CCCC5)c4)cc23)CC1 [Example 276, 3-[1-(ethylsulfonyl)-4-piperidinyl]-5-[3-(1-pyrrolidinylmethyl)phenyl]-1H-indole-7-carboxamide trifluoroacetate] | ≤ 1500 nM | ≤ 10 µM |  |
| CCS(=O)(=O)N1CCC(c2c[nH]c3c(C(N)=O)cc(-c4csc(CN(C)[C@@H](C)CO)c4)cc23)CC1 [Example 408, 3-[1-(ethylsulfonyl)-4-piperidinyl]-5-(5-{[[(1S)-2-hydroxy-1-methylethyl](methyl)amino]methyl}-3-thienyl)-1H-indole-7-carboxamide trifluoroacetate] | ≤ 1500 nM | ≤ 10 µM |  |
| CCS(=O)(=O)N1CCC(c2c[nH]c3c(C(N)=O)cc(-c4ccc(N5CCN(C)CC5=O)cc4)cc23)CC1 [Example 388, 3-[1-(ethylsulfonyl)-4-piperidinyl]-5-[4-(4-methyl-2-oxo-1-piperazinyl)phenyl]-1H-indole-7-carboxamide] | > 1000 nM | ≤ 10 µM |  |
| CCS(=O)(=O)N1CCC(c2c[nH]c3c(C(N)=O)cc(-c4cc(CN(C)C)c5c(c4)OCC5)cc23)CC1 [Example 58, 5-{4-[(dimethylamino)methyl]-2,3-dihydro-1-benzofuran-6-yl}-3-[1-(ethylsulfonyl)-4-piperidinyl]-1H-indole-7-carboxamide] |  | ≤ 10 µM | 0 to 60% |
| CCS(=O)(=O)N1CCC(c2c[nH]c3c(C(N)=O)cc(-c4cccc(CNCC(C)(C)C)c4)cc23)CC1 [Example 308, 5-(3-{[(2,2-dimethylpropyl)amino]methyl}phenyl)-3-[1-(ethylsulfonyl)-4-piperidinyl]-1H-indole-7-carboxamide trifluoroacetate] | ≤ 1500 nM | ≤ 10 µM |  |
| CCCC(C)NCc1ccc(-c2cc(C(N)=O)c3[nH]cc(C4CCN(S(=O)(=O)CC)CC4)c3c2)s1 (stereo not shown) [Example 186, 3-[1-(ethylsulfonyl)-4-piperidinyl]-5-(5-{[(1-methylbutyl)amino]methyl}-2-thienyl)-1H-indole-7-carboxamide] |  | ≤ 10 µM | 0 to 60% |
| CCN(CC)Cc1cc(-c2cc(C(N)=O)c3[nH]cc(C4CCN(S(=O)(=O)CC)CC4)c3c2)co1 [Example 248, 5-{5-[(diethylamino)methyl]-3-furanyl}-3-[1-(ethylsulfonyl)-4-piperidinyl]-1H-indole-7-carboxamide trifluoroacetate] | ≤ 1500 nM | ≤ 10 µM |  |
| CCS(=O)(=O)N1CCC(c2c[nH]c3c(C(N)=O)cc(-c4cc(C#N)cc(CN(C)C)c4)cc23)CC1 [Example 358, 5-{3-cyano-5-[(dimethylamino)methyl]phenyl}-3-[1-(ethylsulfonyl)-4-piperidinyl]-1H-indole-7-carboxamide trifluoroacetate] | ≤ 1500 nM | ≤ 10 µM |  |
| CCS(=O)(=O)N1CCC(c2c[nH]c3c(C(N)=O)cc(-c4csc(CN(C)Cc5ccncc5)c4)cc23)CC1 [Example 78, 3-[1-(ethylsulfonyl)-4-piperidinyl]-5-(5-{[methyl(4-pyridinylmethyl)amino]methyl}-3-thienyl)-1H-indole-7-carboxamide trifluoroacetate] | ≤ 1500 nM | ≤ 10 µM |  |
| CCS(=O)(=O)N1CCC(c2c[nH]c3c(C(N)=O)cc(-c4ccnc(NCC(C)C)c4)cc23)CC1 [Example 205, 3-[1-(ethylsulfonyl)-4-piperidinyl]-5-{2-[(2-methylpropyl)amino]-4-pyridinyl}-1H-indole-7-carboxamide trifluoroacetate] | > 1000 nM | ≤ 10 µM |  |
| CCC(c1cc(-c2cc(C(N)=O)c3[nH]cc(C4CCN(S(=O)(=O)CC)CC4)c3c2)cs1)N1CCCC1 (stereo not shown) [Example 219, 3-[1-(ethylsulfonyl)-4-piperidinyl]-5-{5-[1-(1-pyrrolidinyl)propyl]-3-thienyl}-1H-indole-7-carboxamide trifluoroacetate] | ≤ 1500 nM | ≤ 10 µM |  |
| CCS(=O)(=O)N1CCC(c2c[nH]c3c(C(N)=O)cc(-c4ccc(CCNC(=O)C5CCCCC5)cc4)cc23)CC1 [Example 133, 5-(4-{2-[(cyclohexylcarbonyl)amino]ethyl}phenyl)-3-[1-(ethylsulfonyl)-4-piperidinyl]-1H-indole-7-carboxamide] | > 1000 nM | ≤ 10 µM |  |
